Molecular target: T1, GST-VP8* of P[16] murine RVA EMcN (Murine rotavirus EMcN, UniProt Q6WVQ1)
T1 construct: gene VP4; VP8* core aa 46-231, cut from VP4 precursor; N-terminal GST fusion kept; E. coli BL21
Assay: CFG glycan array, GST-VP8* detected with fluorescent anti-GST antibody (RFU)
Format: binding
Details: immobilised glycan

With `OC[C@H]1O[C@H](O[C@H]2[C@@H](O)[C@@H](CO)O[C@@H](O[C@H]3[C@H](O)[C@@H](O)C(O)O[C@@H]3CO)[C@@H]2O)[C@H](O)[C@@H](O)[C@H]1O` (stereo partly shown) [compound 117, Galα1-3Galβ1-4Glc] the “CFG glycan array, GST-VP8* detected with fluorescent anti-GST antibody (RFU)” value was “Four strains exhibited strongest binding signals to the αGal containing glycans”.

— PMC7473324, “Histo-blood group antigens as divergent factors of groups A and C rotaviruses circulating in humans and different animal species” (Emerging Microbes & Infections, 2020)
